Organism: Homo sapiens
Assay: Selectivity factor, ratio of IC50 for human membrane bound C-terminal His4-tagged CYP21A2delta19H mutant to IC50 for human membrane bound C-terminal His4-tagged CYP17A1delta19H mutant

`C[C@]12CC[C@H](O)C[C@@H]1/C(=N/O)C[C@@H]1[C@@H]2CC[C@]2(C)C(c3cccnc3)=CC[C@@H]12` was tested. Which Ratio IC50 did it give?
Its Ratio IC50 is 68.9.
